# Experimental data taken from article PMC10635799, “Analogs of FTY720 inhibit TRPM7 but not S1PRs and exert multimodal anti-inflammatory effects” (The Journal of General Physiology, 2023).
# “Also recorded” adds a separate entry of the source. Where two headings read alike, the source gives them in different places.
# Experiments:
# mouse TRPM7 = biological target: T1, mouse TRPM7 (Mus musculus, UniProt Q923J1); assay: Whole-cell patch clamp of TRPM7 current (IM7) in HEK 293T cells overexpressing mouse TRPM7; type: cell-based
# T1 construct: expressed in transfected cells; host or cells: HEK 293T cells (CRL-3216; ATCC), transient transfection with jetOPTIMUS, co-transfected eGFP as a separate plasmid
# Description: To overexpress TRPM7, HEK 293T cells were plated at a density of 500,000 cells per well (day 0), transfected at 80–90% confluency (day 1), and were patched 24–36 h after transfection (day 2). TRPM7 overexpression was performed using WT mouse TRPM7 (2.5 µg plasmid DNA; [Desai et al., 2012]) and jetOPTIMUS DNA Transfection Reagent (101000006; Polyplus). To enhance the selection rate of TRPM7-overexpressing cells, eGFP (#22152; Addgene) was included at a 1:10 dilution (0.25 µg) and only GFP-positive cells were patched.
# Whole-cell patch clamp electrophysiology was performed as described previously ([Schappe et al., 2022]). Briefly, the external solution contained (in mM) 140 Na-methanesulfonate, 5 Cs-gluconate, 2.5 CaCl2, and 10 HEPES, pH 7.4 (adjusted with NaOH), at an osmolality of 280–290 mOsm/kg. The internal pipette solution contained (in mM) 115 Cs-gluconate, 3 NaCl, 0.75 CaCl2, 10 HEPES, 10 HEDTA, 1.8 Cs4-BAPTA, and 2 Na2ATP, pH 7.3 (adjusted with CsOH), at an osmolality of 273 mOsm/kg. Intracellular free [Ca^2+] was estimated to be ∼100 nM using the online WEBMAXC standard calculator at https://somapp.ucdmc.ucdavis.edu/pharmacology/bers/maxchelator/webmaxc/webmaxcS.htm ([Bers et al., 2010]). Recordings were captured in pCLAMP 9 (Molecular Devices) using a 400-ms ramp protocol from −100 to +100 mV and a holding potential of 0 mV. Sampling was performed at 10 kHz with a 5 kHz low-pass band filter using an Axopatch 200B amplifier (Molecular Devices). All electrophysiology experiments were conducted at RT (∼23°C). […] Similarly, the minimum current for each inhibitor dose is taken as the stable minimum current observed after the drug has had time to exert an effect and after the flow-driven transient increase has subsided.
# Data were analyzed using Microsoft Excel, Prism 9.5 (GraphPad Software), and Origin Pro 7.5 (OriginLab). Chemical structures were created using ChemDraw Professional 20.1.1 (PerkinElmer). Electrophysiology traces were plotted using Origin Pro 7.5, and the remaining data were plotted and statistically tested using Prism. Outliers were determined using the robust regression and outlier removal (ROUT) function within Prism. IC50 values were determined by plotting the percentage of maximum current observed as a function of applied drug concentration. A non-linear regression was fit using a standard Hill slope of −1.0 and the model: Y=100/[1+([Inhibitor]/IC50)]. Where appropriate, data are presented as individual values; otherwise the sample sizes and precision measures are indicated in the figure legends. P values of <0.05 were considered statistically significant.
# S1P receptors = settings: cited from earlier work; for Effect on S1PRs: non-phosphorylated form, ref Qin et al., 2013
# RAW 264.7 macrophages = assay: LPS-induced inflammatory gene expression (qRT-PCR) in RAW 264.7 macrophages; type: cell-based; settings: LPS 1 µg/ml for 3 h
# Description: RAW 264.7 macrophages or BMDMs were seeded at a density of 250,000 cells per well into a 12-well tissue culture plate in 1 ml of media and left to incubate overnight. The indicated drug or vehicle control was added to each well, and the plate was agitated and left to incubate for 10 min. The cells were then treated with LPS (1 μg/ml) or an equivalent volume of PBS, agitated, and left to incubate for 3 h. Cells were washed with PBS and then RNA isolation was performed using RNeasy Plus Micro Kit (74134; Qiagen). cDNA was produced using GoScript Reverse Transcriptase ([…]; Promega) and a quantitative PCR was performed using SensiFast SYBR (98020; Bioline) and Bio-Rad CFX Connect thermocycler. Each datum represents an individual, biological replicate that is the mean of duplicate technical replicates. Fold-changes are all reported relative to untreated controls for each experiment and were calculated using the ΔΔCt method, with β2-microglobulin used as the housekeeping gene for each sample. The experiment was performed similarly with BV-2 microglia and alveolar macrophages, except that cells were plated at a density of 100,000 cells per well into a 24-well tissue culture plate with 1 ml of media per well.
# HeLa cells = assay: LDH-release cytotoxicity assay; type: cell-based; settings: 24 h
# Description: WT HeLa cells were plated at a density of 10,000 cells per well into a 96-well tissue culture microplate (3610; Costar). AAL-149, VPC01091.4, or vehicle at 0.1, 1, 5, 10, and 25 μM was added to cells with media for a final volume of 100 μl and incubated for 24 h. LDH release was quantified using a CyQUANT LDH Cytotoxicity Assay (C20300; Thermo Fisher Scientific) and a FlexStation 3 plate reader using SoftMax […] (Molecular Devices).
# BMDMs = assay: LPS-induced inflammation assay in WT and TRPM7 KO BMDMs (qRT-PCR); type: cell-based, mice; settings: 10 µM VPC4, 10 µM AAL-149, 5 µM FTY720, 30 μM NS8593
# Description: All cells were cultured at 37°C with 5% CO2. HEK 293T cells (CRL-3216; ATCC), HeLa cells (CCL-2; ATCC), RAW 264.7 macrophages (TIB-71; ATCC), and BV-2 microglial cells (ABC-TC212S; AcceGen Biotech) were cultured in DMEM (11995065; Gibco) with 10% fetal bovine serum (FBS; Avantor Seradigm Premium Grade Fetal Bovine Serum 97068-085). FBS was heat-inactivated prior to use at 56°C for 30 min. BMDMs were isolated and cultured as previously described ([Schappe et al., 2018]) and differentiated into mature macrophages over 7 d through culture in BMDM media (RPMI 1640, 10% FBS, and 20% L-929 culture supernatant; Gibco).
# RAW 264.7 macrophages or BMDMs were seeded at a density of 250,000 cells per well into a 12-well tissue culture plate in 1 ml of media and left to incubate overnight. The indicated drug or vehicle control was added to each well, and the plate was agitated and left to incubate for 10 min. The cells were then treated with LPS (1 µg/ml) or an equivalent volume of PBS, agitated, and left to incubate for 3 h. Cells were washed with PBS and then RNA isolation was performed using RNeasy Plus Micro Kit (74134; Qiagen). cDNA was produced using GoScript Reverse Transcriptase (A5004; Promega) and a quantitative PCR was performed using SensiFast SYBR (98020; Bioline) and Bio-Rad CFX Connect thermocycler. Each datum represents an individual, biological replicate that is the mean of duplicate technical replicates. Fold-changes are all reported relative to untreated controls for each experiment and were calculated using the ∆∆Ct method, with β2-microglobulin used as the housekeeping gene for each sample. The experiment was performed similarly with BV-2 microglia and alveolar macrophages, except that cells were plated at a density of 100,000 cells per well into a 24-well tissue culture plate with 1 ml of media per well.
# lymphocytes = test system: lymphocytes; set-up: method as in Brinkmann et al., 2002; Zhu et al., 2007; settings: ref Brinkmann et al., 2002; Zhu et al., 2007; cited from earlier work
# TRPM7 = settings: cited from earlier work; for IC50: read-out: IC50 for TRPM7 inhibition
# [1] = test system: small-conductance Ca^2+-activated K^+ (SK) channels; set-up: method as in Diness et al., 2010; settings: ref Diness et al., 2010; read-out: IC50 on SK-family channels; cited from earlier work
# [2] = non-phosphorylated form, ref Qin et al., 2013
# T1 sequence (Q923J1 whole entry): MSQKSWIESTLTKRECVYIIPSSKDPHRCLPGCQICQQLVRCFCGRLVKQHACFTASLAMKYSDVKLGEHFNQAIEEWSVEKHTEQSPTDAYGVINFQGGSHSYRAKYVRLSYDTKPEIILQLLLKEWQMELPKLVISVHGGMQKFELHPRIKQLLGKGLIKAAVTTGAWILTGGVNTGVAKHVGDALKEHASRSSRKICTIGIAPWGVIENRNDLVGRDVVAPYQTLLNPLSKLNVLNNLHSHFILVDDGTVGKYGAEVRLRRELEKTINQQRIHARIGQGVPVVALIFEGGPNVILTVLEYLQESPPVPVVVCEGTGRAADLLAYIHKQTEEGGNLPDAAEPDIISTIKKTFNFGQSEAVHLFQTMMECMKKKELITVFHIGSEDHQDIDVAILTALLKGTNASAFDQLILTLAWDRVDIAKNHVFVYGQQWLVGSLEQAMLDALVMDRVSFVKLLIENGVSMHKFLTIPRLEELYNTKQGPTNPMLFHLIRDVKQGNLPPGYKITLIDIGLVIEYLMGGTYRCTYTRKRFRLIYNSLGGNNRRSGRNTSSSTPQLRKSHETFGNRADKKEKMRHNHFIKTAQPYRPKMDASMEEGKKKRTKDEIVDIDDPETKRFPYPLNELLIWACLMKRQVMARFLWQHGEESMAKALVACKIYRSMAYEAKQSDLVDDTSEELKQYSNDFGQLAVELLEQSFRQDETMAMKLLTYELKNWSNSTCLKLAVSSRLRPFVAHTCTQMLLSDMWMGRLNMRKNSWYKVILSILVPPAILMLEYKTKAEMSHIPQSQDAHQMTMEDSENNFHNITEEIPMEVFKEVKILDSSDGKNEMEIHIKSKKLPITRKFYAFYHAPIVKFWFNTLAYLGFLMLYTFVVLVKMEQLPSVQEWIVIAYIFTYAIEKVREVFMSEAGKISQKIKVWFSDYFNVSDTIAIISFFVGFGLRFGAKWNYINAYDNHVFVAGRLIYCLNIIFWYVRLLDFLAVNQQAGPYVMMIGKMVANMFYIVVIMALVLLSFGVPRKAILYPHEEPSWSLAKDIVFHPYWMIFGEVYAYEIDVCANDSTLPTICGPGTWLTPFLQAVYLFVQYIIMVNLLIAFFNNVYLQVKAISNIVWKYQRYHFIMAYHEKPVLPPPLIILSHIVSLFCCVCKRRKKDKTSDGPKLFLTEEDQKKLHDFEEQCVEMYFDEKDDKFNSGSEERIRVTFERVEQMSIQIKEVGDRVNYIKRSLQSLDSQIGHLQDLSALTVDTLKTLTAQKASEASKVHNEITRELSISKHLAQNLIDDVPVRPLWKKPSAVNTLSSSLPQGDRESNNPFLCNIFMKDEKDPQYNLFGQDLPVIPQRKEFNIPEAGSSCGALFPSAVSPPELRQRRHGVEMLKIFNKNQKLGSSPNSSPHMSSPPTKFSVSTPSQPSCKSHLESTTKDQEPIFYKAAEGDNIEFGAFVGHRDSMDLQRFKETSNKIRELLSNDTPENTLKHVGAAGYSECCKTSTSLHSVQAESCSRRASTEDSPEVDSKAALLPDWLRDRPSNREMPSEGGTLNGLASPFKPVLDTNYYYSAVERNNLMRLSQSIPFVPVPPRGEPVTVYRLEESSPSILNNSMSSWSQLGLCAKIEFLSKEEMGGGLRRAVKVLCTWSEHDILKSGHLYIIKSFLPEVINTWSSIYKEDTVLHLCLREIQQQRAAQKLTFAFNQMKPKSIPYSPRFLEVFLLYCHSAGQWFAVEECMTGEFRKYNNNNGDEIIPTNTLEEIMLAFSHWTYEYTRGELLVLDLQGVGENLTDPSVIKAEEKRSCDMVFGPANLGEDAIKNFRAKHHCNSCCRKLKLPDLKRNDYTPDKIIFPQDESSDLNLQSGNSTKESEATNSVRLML
smiles,measurement,setting,value
"CCCCCCCOc1ccc(CC[C@](C)(N)CO)cc1 [AAL-149, (2S)-2-amino-4-(4-heptoxyphenyl)-2-methylbutan-1-ol]",IC50,mouse TRPM7,1080 nM
same,Activity at S1P receptors,"S1P receptors; ref Brinkmann et al., 2002, Zhu et al., 2007",not active
same,LPS-stimulated IL-1β gene expression,RAW 264.7 macrophages; 10 µM pretreatment,completely abrogated
same,Cytotoxicity (LDH release),HeLa cells; dosages up to 10 µM,did not result in any significant cytotoxicity
same,Mean cytotoxicity (LDH release),HeLa cells; each dose up to 25 µM,< 5%
same,LPS-induced IL-1β expression in TRPM7 KO BMDMs,BMDMs,able to suppress
same,Lymphopenia when administered to mice,lymphocytes,do not evoke lymphopenia
"CCCCCCCCc1ccc(CCC(N)(CO)CO)cc1 [FTY720, fingolimod]",Effect on whole-cell TRPM7 current (IM7),mouse TRPM7; 5 µM,inhibited; also recorded: able to inhibit
same,Effect on S1PRs,S1P receptors,no effect
same,LPS-induced IL-1β expression in TRPM7 KO BMDMs,BMDMs,able to suppress
same,IC50,TRPM7; [2],720 nM
"CCCCCCCCCCCCC/C=C/[C@H](O)[C@@H](N)CO [L-threo-sphingosine, L-threo-(2S,3S)-sphingosine, reference compound]",IC50,"mouse TRPM7; peak current at +100 mV, HEK 293T overexpressing mouse TRPM7, Hill slope -1.0, read-out: IC50 for inhibition of TRPM7 current (IM7)",3380 nM
"c1ccc2c(c1)CCC[C@H]2Nc1nc2ccccc2[nH]1 [NS8593, (R)-N-(benzimidazol-2-yl)-1,2,3,4-tetrahydro-1-naphtylamine]",LPS-induced IL-1β expression in TRPM7 KO BMDMs,BMDMs,able to suppress
same,IC50,"TRPM7; ref Chubanov et al., 2012",1600 nM
same,IC50,[1],420 to 730 nM
"CCCCCCCCCCCCC/C=C/[C@@H](O)[C@@H](N)COP(=O)(O)O [S1P, sphingosine-1-phosphate]",Effect of phosphorylated forms on IM7,"TRPM7; ref Qin et al., 2013",do not inhibit
"CCCCCCCCc1ccc([C@H]2CC[C@](N)(CO)C2)cc1 [VPC01091.1, ((1R,3S)-1-amino-3-(4-octylphenyl)cyclopentyl)methanol]",Effect on whole-cell TRPM7 current (IM7),mouse TRPM7; 10 µM,inhibited
"CCCCCCCCc1ccc([C@H]2CC[C@@](N)(COP(=O)(O)O)C2)cc1 [VPC01091.2-P, ((1S,3S)-1-amino-3-(4-octylphenyl)cyclopentyl)methyl dihydrogen phosphate]",Effect on whole-cell TRPM7 current (IM7),mouse TRPM7; 10 µM,negligible effect; also recorded: no effect
same,LPS-stimulated IL-1β gene expression,"RAW 264.7 macrophages; pretreatment, concentration not given",no significant inhibition
"CCCCCCCCc1ccc([C@@H]2CC[C@](N)(CO)C2)cc1 [VPC01091.3, ((1R,3R)-1-amino-3-(4-octylphenyl)cyclopentyl)methanol]",Effect on whole-cell TRPM7 current (IM7),mouse TRPM7; 10 µM,inhibited
C=C1CC/C=C(\C)CC[C@@H]2C([C@H](C/C=C(\C)COC(C)=O)OC(C)=O)=CO[C@H](OC(C)=O)[C@@H]12 [Waixenicin A],Time to suppress ITRPM7,"TRPM7; 10 μM, ref Zierler et al., 2011",up to 200 s
same,IC50,"TRPM7; Mg^2+-free conditions, ref Zierler et al., 2011",7000 nM
same,IC50,"TRPM7; recording conditions that limit the development of TRPM7 currents, ref Zierler et al., 2011",16 nM
"CCCCCCCCCCCCC/C=C/[C@@H](O)[C@@H](N)CO [sphingosine, D-erythro-sphingosine, reference compound]",Effect on S1PRs,S1P receptors,no effect
same,IC50,TRPM7; [2],590 nM
